According to ChEMBL document CHEMBL1131475, “Discovery of ritonavir, a potent inhibitor of HIV protease with high oral bioavailability and clinical efficacy” (J Med Chem, 1998):

Key:
in vivo [1] = details: rat, plasma, po
in vivo [2] = details: rat, plasma, po; remark: listed apart in the source
in vivo [3] = details: rat, plasma, po, 10 mg/kg
in vivo [4] = details: rat, plasma, iv
[5] = Oral bioavailability in rat; format: ADME, organism-based; details: in vivo

Compound | Tmax (in vivo [1]) | AUC (in vivo [2]) | Cmax (in vivo [3]) | half-life (in vivo [4]) | bioavailability [5] | F [5]
CC(C)c1nc(CN(C)C(=O)NC(C(=O)N[C@@H](Cc2ccccc2)C[C@H](O)[C@H](Cc2ccccc2)NC(=O)OCc2cccnc2)C(C)C)co1 (stereo partly drawn) | 15 min | 1.1 µg·h/mL | 2.13 µM | 13.2 min | 18% | –
CC(NC(=O)N(C)Cc1csc(C(C)C)n1)C(=O)N[C@@H](Cc1ccccc1)C[C@H](O)[C@H](Cc1ccccc1)NC(=O)OCc1cncs1 (stereo partly drawn) | 30 min | 1.6 µg·h/mL | 1.68 µM | 54 min | 31% | –
CC(C)c1nc(COC(=O)NC(C(=O)N[C@@H](Cc2ccccc2)C[C@H](O)[C@H](Cc2ccccc2)NC(=O)OCc2cccnc2)C(C)C)co1 (stereo partly drawn) | 12 min | 0.2 µg·h/mL | 0.46 µM | 19.8 min | 5% | –
Cc1cccc(CN(C)C(=O)NC(C(=O)N[C@@H](Cc2ccccc2)C[C@H](O)[C@H](Cc2ccccc2)NC(=O)OCc2cccnc2)C(C)C)n1 (stereo partly drawn) | 17.4 min | 1.66 µg·h/mL | 3.39 µM | 40.8 min | 32% | –
CC(C)C(NC(=O)OCc1csc(N2CCOCC2)n1)C(=O)N[C@@H](Cc1ccccc1)[C@@H](O)C[C@H](Cc1ccccc1)NC(=O)OCc1cccnc1 (stereo partly drawn) | 9 min | 0.03 µg·h/mL | 0.09 µM | 21 min | 1.1% | –
CC(C)c1nc(CN(C)C(=O)NC(C(=O)N[C@@H](Cc2ccccc2)[C@@H](O)C[C@H](Cc2ccccc2)NC(=O)OCc2cncs2)C(C)C)cs1 (stereo partly drawn) | 105 min | 1.7 µg·h/mL | 2.29 µM | 120 min | 16% | –
CC(C)C(NC(=O)OCc1ccccn1)C(=O)N[C@@H](Cc1ccccc1)[C@@H](O)C[C@H](Cc1ccccc1)NC(=O)OCc1cccnc1 (stereo partly drawn) | 15 min | 1.98 µg·h/mL | 4.11 µM | 114 min | 26% | –
CC(C)c1csc(COC(=O)NC(C(=O)N[C@@H](Cc2ccccc2)C[C@H](O)[C@H](Cc2ccccc2)NC(=O)OCc2cncs2)C(C)C)n1 (stereo partly drawn) | 55.2 min | 14.3 µg·h/mL | 5.8 µM | 30 min | – | 151%
Cc1cncc(COC(=O)NC(C(=O)N[C@@H](Cc2ccccc2)[C@@H](O)C[C@H](Cc2ccccc2)NC(=O)OCc2cccnc2)C(C)C)c1 (stereo partly drawn) | 18 min | 0.21 µg·h/mL | 0.48 µM | 16.8 min | 5.9% | –
Cc1cccc(COC(=O)NC(C(=O)N[C@@H](Cc2ccccc2)[C@@H](O)C[C@H](Cc2ccccc2)NC(=O)OCc2ccoc2)C(C)C)n1 (stereo partly drawn) | – | – | – | 13.2 min | 0% | –
CC(C)c1nc(CCC(=O)NC(C(=O)N[C@@H](Cc2ccccc2)C[C@H](O)[C@H](Cc2ccccc2)NC(=O)OCc2cccnc2)C(C)C)cs1 (stereo partly drawn) | 6 min | 0.17 µg·h/mL | 0.38 µM | 16.8 min | 3.4% | –
Cc1cccc(CN(C)C(=O)NC(C(=O)N[C@@H](Cc2ccccc2)[C@@H](O)C[C@H](Cc2ccccc2)NC(=O)OCc2cccnc2)C(C)C)n1 (stereo partly drawn) | 15 min | 0.95 µg·h/mL | 2.42 µM | 13.2 min | 16% | –
CC(C)C(NC(=O)N(C)Cc1csc(C2CCC2)n1)C(=O)N[C@@H](Cc1ccccc1)C[C@H](O)[C@H](Cc1ccccc1)NC(=O)OCc1cncs1 (stereo partly drawn) | 72 min | 6.29 µg·h/mL | 2.48 µM | 24 min | 60% | –
CC(C)C(NC(=O)OCc1ccccn1)C(=O)N[C@@H](Cc1ccccc1)C[C@H](O)[C@H](Cc1ccccc1)NC(=O)OCc1cncs1 (stereo partly drawn) | 22.2 min | 4.24 µg·h/mL | 2.04 µM | 73.8 min | 47% | –
COCc1ncc(COC(=O)NC(C(=O)N[C@@H](Cc2ccccc2)C[C@H](O)[C@H](Cc2ccccc2)NC(=O)OCc2cccnc2)C(C)C)s1 (stereo partly drawn) | 6 min | 0.02 µg·h/mL | 0.12 µM | 16.2 min | 0.6% | –
CC(C)C(NC(=O)OCc1cncc(N)c1)C(=O)N[C@@H](Cc1ccccc1)[C@@H](O)C[C@H](Cc1ccccc1)NC(=O)OCc1cccnc1 (stereo partly drawn) | 6 min | 0.02 µg·h/mL | 0.2 µM | 43.2 min | 0.5% | –
CC(C)C(NC(=O)OCc1cncc(N)c1)C(=O)N[C@@H](Cc1ccccc1)C[C@H](O)[C@H](Cc1ccccc1)NC(=O)OCc1cccnc1 (stereo partly drawn) | 6 min | 0.03 µg·h/mL | 0.14 µM | 30 min | 0.3% | –
CC(C)C(NC(=O)N(C)Cc1ccccn1)C(=O)N[C@@H](Cc1ccccc1)[C@@H](O)C[C@H](Cc1ccccc1)NC(=O)OCc1cncnc1 (stereo partly drawn) | 12 min | 0.87 µg·h/mL | 2.91 µM | 21 min | 13% | –
CCc1cccc(CN(C)C(=O)NC(C(=O)N[C@@H](Cc2ccccc2)[C@@H](O)C[C@H](Cc2ccccc2)NC(=O)OCc2cccnc2)C(C)C)n1 (stereo partly drawn) | 9 min | 0.73 µg·h/mL | 1.53 µM | 31.2 min | 23% | –

Compound | Tmax (in vivo [1]) | AUC (in vivo [2]) | Cmax (in vivo [3]) | half-life (in vivo [4]) | bioavailability [5] | F [5]
COc1cncc(CN(C)C(=O)NC(C(=O)N[C@@H](Cc2ccccc2)[C@@H](O)C[C@H](Cc2ccccc2)NC(=O)OCc2cccnc2)C(C)C)c1 (stereo partly drawn) | 6 min | 0.05 µg·h/mL | 0.44 µM | 10.2 min | 0.8% | –
Cc1cncc(COC(=O)NC(C(=O)N[C@@H](Cc2ccccc2)C[C@H](O)[C@H](Cc2ccccc2)NC(=O)OCc2cccnc2)C(C)C)n1 (stereo partly drawn) | 6 min | 0.64 µg·h/mL | 1.33 µM | 69 min | 10% | –
COc1ccc(COC(=O)NC(C(=O)N[C@@H](Cc2ccccc2)C[C@H](O)[C@H](Cc2ccccc2)NC(=O)OCc2cccnc2)C(C)C)cn1 (stereo partly drawn) | 6 min | 0.03 µg·h/mL | 0.19 µM | 19.8 min | 0.7% | –
COc1ccc(CN(C)C(=O)NC(C(=O)N[C@@H](Cc2ccccc2)C[C@H](O)[C@H](Cc2ccccc2)NC(=O)OCc2cccnc2)C(C)C)cn1 (stereo partly drawn) | 6 min | 0.32 µg·h/mL | 1.75 µM | 13.2 min | 10% | –
COc1cncc(COC(=O)NC(C(=O)N[C@@H](Cc2ccccc2)C[C@H](O)[C@H](Cc2ccccc2)NC(=O)OCc2cccnc2)C(C)C)c1 (stereo partly drawn) | 6 min | 0.03 µg·h/mL | 0.2 µM | 48 min | 0.9% | –
Cc1ncc(COC(=O)NC(C(=O)N[C@@H](Cc2ccccc2)[C@@H](O)C[C@H](Cc2ccccc2)NC(=O)OCc2cccnc2)C(C)C)nc1C (stereo partly drawn) | 12 min | 0.12 µg·h/mL | 0.35 µM | 18 min | 5.7% | –
CCc1ncc(COC(=O)NC(C(=O)N[C@@H](Cc2ccccc2)C[C@H](O)[C@H](Cc2ccccc2)NC(=O)OCc2cccnc2)C(C)C)s1 (stereo partly drawn) | 6 min | 0.01 µg·h/mL | 0.16 µM | 11.4 min | 0.5% | –
Cc1ncc(COC(=O)N[C@@H](Cc2ccccc2)[C@@H](O)C[C@H](Cc2ccccc2)NC(=O)C(NC(=O)N(C)Cc2csc(C(C)C)n2)C(C)C)s1 (stereo partly drawn) | 72 min | 0.91 µg·h/mL | 0.65 µM | 26.4 min | 23% | –
Cc1ccc(COC(=O)NC(C(=O)N[C@@H](Cc2ccccc2)[C@@H](O)C[C@H](Cc2ccccc2)NC(=O)OCc2cccnc2)C(C)C)cn1 (stereo partly drawn) | 6 min | 0.24 µg·h/mL | 0.45 µM | 34.2 min | 6.3% | –
Cc1nc(CN(C)C(=O)NC(C(=O)N[C@@H](Cc2ccccc2)[C@@H](O)C[C@H](Cc2ccccc2)NC(=O)OCc2cccnc2)C(C)C)cs1 (stereo partly drawn) | 15 min | 1.08 µg·h/mL | 2.01 µM | 89.4 min | 15% | –
CC(C)c1nc(CN(C)C(=O)NC(C(=O)N[C@@H](Cc2ccccc2)C[C@H](O)[C@H](Cc2ccccc2)NC(=O)OCc2cnco2)C(C)C)co1 (stereo partly drawn) | 9 min | 1.85 µg·h/mL | 2.05 µM | 15.6 min | 35% | –
CC(C)C(NC(=O)OCc1cnccn1)C(=O)N[C@@H](Cc1ccccc1)[C@@H](O)C[C@H](Cc1ccccc1)NC(=O)OCc1cccnc1 (stereo partly drawn) | 12 min | 0.21 µg·h/mL | 1.03 µM | 13.8 min | 4.5% | –
CCc1nc(CN(C)C(=O)NC(C(=O)N[C@@H](Cc2ccccc2)C[C@H](O)[C@H](Cc2ccccc2)NC(=O)OCc2cccnc2)C(C)C)cs1 (stereo partly drawn) | 15 min | 1.05 µg·h/mL | 1.49 µM | 72 min | 17% | –
CCc1cccc(COC(=O)NC(C(=O)N[C@@H](Cc2ccccc2)C[C@H](O)[C@H](Cc2ccccc2)NC(=O)OCc2cccnc2)C(C)C)n1 (stereo partly drawn) | 12 min | 0.47 µg·h/mL | 0.59 µM | 23.4 min | 8% | –
CC(C)c1nc(CN(C)C(=O)NC(C(=O)N[C@@H](Cc2ccccc2)[C@@H](O)C[C@H](Cc2ccccc2)NC(=O)OCc2cccnc2)C(C)C)co1 (stereo partly drawn) | 6 min | 0.09 µg·h/mL | 0.29 µM | 17.4 min | 3.3% | –
CC(C)C(NC(=O)N(C)Cc1csc(C(C)(C)C)n1)C(=O)N[C@@H](Cc1ccccc1)C[C@H](O)[C@H](Cc1ccccc1)NC(=O)OCc1cccnc1 (stereo partly drawn) | 19.8 min | 0.23 µg·h/mL | 0.38 µM | 17.4 min | 5.3% | –
CC(C)c1nc(COC(=O)NC(C(=O)N[C@@H](Cc2ccccc2)C[C@H](O)[C@H](Cc2ccccc2)NC(=O)OCc2cccnc2)C(C)C)cs1 (stereo partly drawn) | 6 min | 0.05 µg·h/mL | 0.21 µM | 14.4 min | 1.6% | –
CC(C)C(NC(=O)OCc1csc(N2CCOCC2)n1)C(=O)N[C@@H](Cc1ccccc1)C[C@H](O)[C@H](Cc1ccccc1)NC(=O)OCc1cccnc1 (stereo partly drawn) | – | – | – | 19.2 min | 0% | –
CCc1nc(CN(C)C(=O)NC(C(=O)N[C@@H](Cc2ccccc2)[C@@H](O)C[C@H](Cc2ccccc2)NC(=O)OCc2cncs2)C(C)C)cs1 (stereo partly drawn) | 60 min | 9.37 µg·h/mL | 5.12 µM | – | – | 167%
